Test results as given in paper PMC4710522, “A Novel Triazolopyridine-Based Spleen Tyrosine Kinase Inhibitor That Arrests Joint Inflammation” (PLoS ONE, 2016).
pIC50: −log10 of the molar value. “And” between values parts separate entries of the source, which are not always exact repeats. Equal entries are not always repeated. Where two headings read alike, the source gives them in different places.

Legend:
DNAPK_h = biological target: T1, DNAPK_h (Homo sapiens, UniProt P78527); assay: SelectScreen kinase assay; format: biochemical; conditions: 3 µM, KM ATP
T1 construct: purchased Life Technologies (Invitrogen) SelectScreen, Z'-LYTE / Adapta
Procedure: Syk kinase mode of inhibition studies, including parameters described in Fig 1, were conducted on the LC3000 platform by Caliper Life Sciences (Hopkinton, MA) according to standard protocols developed by the supplier. […] Non-kinase enzyme assays and GPCR, ion channel, and transporter binding assays were run by CEREP (France). Non-GLP manual patch clamp hERG assays were run by ChanTest (Cleveland, Ohio). Vivid® Assay kits (Life Technologies) were used to measure the cytochrome P450 inhibition of the compound against CYP3A, CYP2C9, CYP2C19, CYP2D6, and CYP1A2, as described.
Kinase activity was measured using either the Z’-Lyte® or the Adapta® protocols as part of the SelectScreen™ profiling service offered at Life Technologies (Grand Island, NY). […] Values expressed as percent control (% control) relative to DMSO-only wells (uninhibited, 100%).

[1] = test system: rat passive cutaneous anaphylaxis model; conditions: 10 mg/kg dose; cited from earlier work
[2] = rat CIA, cited from earlier work
ALK4_h = biological target: T2, ALK4_h (Homo sapiens, UniProt P36896); assay: SelectScreen kinase assay; format: biochemical; conditions: KM ATP, read-out: % control
T2 construct: purchased Life Technologies (Invitrogen) SelectScreen, Z'-LYTE / Adapta
In short: (§1)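 ATP level varied by condition (KM for the specific enzyme, 10 µM or 100 µM), while compound stayed at 3 µM; % control calculated against uninhibited DMSO wells.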

Abl_Y253F_h = biological target: T3, Abl_Y253F_h (Homo sapiens, UniProt P00519, Y253F); assay: SelectScreen kinase assay; format: biochemical; conditions: KM ATP, read-out: % control
T3 construct: purchased Life Technologies (Invitrogen) SelectScreen, Z'-LYTE / Adapta
In short: as §1

BrSK1_h = biological target: T4, BrSK1_h (Homo sapiens, UniProt Q8TDC3); assay: SelectScreen kinase assay; format: biochemical; conditions: KM ATP, read-out: % control
T4 construct: purchased Life Technologies (Invitrogen) SelectScreen, Z'-LYTE / Adapta
In short: as §1

CDK5_p25_h = biological target: T5, CDK5_p25_h (Homo sapiens, UniProt Q00535); assay: SelectScreen kinase assay; format: biochemical; conditions: KM ATP, read-out: % control
T5 construct: purchased Life Technologies (Invitrogen) SelectScreen, Z'-LYTE / Adapta
In short: as §1

CK1-gamma1_h = biological target: T6, CK1-gamma1_h (Homo sapiens, UniProt Q9HCP0); assay: SelectScreen kinase assay; format: biochemical; conditions: KM ATP, read-out: % control
T6 construct: purchased Life Technologies (Invitrogen) SelectScreen, Z'-LYTE / Adapta
In short: as §1

CK1-gamma2_h = biological target: T7, CK1-gamma2_h (Homo sapiens, UniProt P78368); assay: SelectScreen kinase assay; format: biochemical; conditions: KM ATP, read-out: % control
T7 construct: purchased Life Technologies (Invitrogen) SelectScreen, Z'-LYTE / Adapta
In short: as §1

EphB4_h = biological target: T8, EphB4_h (Homo sapiens, UniProt P54760); assay: SelectScreen kinase assay; format: biochemical; conditions: KM ATP, read-out: % control
T8 construct: purchased Life Technologies (Invitrogen) SelectScreen, Z'-LYTE / Adapta
In short: as §1

Fes_h = biological target: T9, Fes_h (Homo sapiens, UniProt P07332); assay: SelectScreen kinase assay; format: biochemical; conditions: KM ATP, read-out: % control
T9 construct: purchased Life Technologies (Invitrogen) SelectScreen, Z'-LYTE / Adapta
In short: as §1

Fgr_h = biological target: T10, Fgr_h (Homo sapiens, UniProt P09769); assay: SelectScreen kinase assay; format: biochemical; conditions: KM ATP, read-out: % control
T10 construct: purchased Life Technologies (Invitrogen) SelectScreen, Z'-LYTE / Adapta
In short: as §1

Flt3_h = Flt3_h (Homo sapiens, UniProt P36888); assay: SelectScreen kinase assay; format: biochemical
Gck_h = biological target: T11, Gck_h (Homo sapiens, UniProt Q12851); assay: SelectScreen kinase assay; format: biochemical; conditions: KM ATP, read-out: % control
T11 construct: purchased Life Technologies (Invitrogen) SelectScreen, Z'-LYTE / Adapta
In short: as §1

JNK3_h = biological target: T12, JNK3_h (Homo sapiens, UniProt P53779); assay: SelectScreen kinase assay; format: biochemical; conditions: 100 µM ATP, read-out: % control
T12 construct: purchased Life Technologies (Invitrogen) SelectScreen, Z'-LYTE / Adapta
In short: as §1

KDR_h = KDR_h (Homo sapiens, UniProt P35968); assay: SelectScreen kinase assay; format: biochemical
In short: as §1

MATK_h = biological target: T13, MATK_h (Homo sapiens, UniProt P42679); assay: SelectScreen kinase assay; format: biochemical; conditions: KM ATP, read-out: % control
T13 construct: purchased Life Technologies (Invitrogen) SelectScreen, Z'-LYTE / Adapta
In short: as §1

MLK1_h = biological target: T14, MLK1_h (Homo sapiens, UniProt P80192); assay: SelectScreen kinase assay; format: biochemical; conditions: KM ATP, read-out: % control
T14 construct: purchased Life Technologies (Invitrogen) SelectScreen, Z'-LYTE / Adapta
In short: as §1

MRCK-beta_h = biological target: T15, MRCK-beta_h (Homo sapiens, UniProt Q9Y5S2); assay: SelectScreen kinase assay; format: biochemical; conditions: KM ATP, read-out: % control
T15 construct: purchased Life Technologies (Invitrogen) SelectScreen, Z'-LYTE / Adapta
In short: as §1

Met_M1250T_h = biological target: T16, Met_M1250T_h (Homo sapiens, UniProt P08581, M1250T); assay: SelectScreen kinase assay; format: biochemical; conditions: KM ATP, read-out: % control
T16 construct: purchased Life Technologies (Invitrogen) SelectScreen, Z'-LYTE / Adapta
In short: as §1

MuSK_h = biological target: T17, MuSK_h (Homo sapiens, UniProt O15146); assay: SelectScreen kinase assay; format: biochemical; conditions: KM ATP, read-out: % control
T17 construct: purchased Life Technologies (Invitrogen) SelectScreen, Z'-LYTE / Adapta
In short: as §1

PAK3_h = biological target: T18, PAK3_h (Homo sapiens, UniProt O75914); assay: SelectScreen kinase assay; format: biochemical; conditions: KM ATP, read-out: % control
T18 construct: purchased Life Technologies (Invitrogen) SelectScreen, Z'-LYTE / Adapta
In short: as §1

PDGFR-beta_h = biological target: T19, PDGFR-beta_h (Homo sapiens, UniProt P09619); assay: SelectScreen kinase assay; format: biochemical; conditions: KM ATP, read-out: % control
T19 construct: purchased Life Technologies (Invitrogen) SelectScreen, Z'-LYTE / Adapta
In short: as §1

PKC-delta_h = biological target: T20, PKC-delta_h (Homo sapiens, UniProt Q05655); assay: SelectScreen kinase assay; format: biochemical; conditions: KM ATP, read-out: % control
T20 construct: purchased Life Technologies (Invitrogen) SelectScreen, Z'-LYTE / Adapta
In short: as §1

PKC-theta_h = biological target: T21, PKC-theta_h (Homo sapiens, UniProt Q04759); assay: SelectScreen kinase assay; format: biochemical; conditions: KM ATP, read-out: % control
T21 construct: purchased Life Technologies (Invitrogen) SelectScreen, Z'-LYTE / Adapta
In short: as §1

SRMS_h = biological target: T22, SRMS_h (Homo sapiens, UniProt Q9H3Y6); assay: SelectScreen kinase assay; format: biochemical; conditions: KM ATP, read-out: % control
T22 construct: purchased Life Technologies (Invitrogen) SelectScreen, Z'-LYTE / Adapta
In short: as §1

ZAP-70_h = ZAP-70_h (Homo sapiens, UniProt P43403); assay: SelectScreen kinase assay; format: biochemical
In short: as §1

p38-alpha_h = biological target: T23, p38-alpha_h (Homo sapiens, UniProt Q16539); assay: SelectScreen kinase assay; format: biochemical; conditions: 100 µM ATP, read-out: % control
T23 construct: purchased Life Technologies (Invitrogen) SelectScreen, Z'-LYTE / Adapta
In short: as §1

CK1-gamma3_h = biological target: T24, CK1-gamma3_h (Homo sapiens, UniProt Q9Y6M4); assay: SelectScreen kinase assay; format: biochemical; conditions: KM ATP, read-out: % control
T24 construct: purchased Life Technologies (Invitrogen) SelectScreen, Z'-LYTE / Adapta

MEK2_h = biological target: T25, MEK2_h (Homo sapiens, UniProt P36507); assay: SelectScreen kinase assay; format: biochemical; conditions: 100 µM ATP, read-out: % control
T25 construct: purchased Life Technologies (Invitrogen) SelectScreen, Z'-LYTE / Adapta

Ret_V804L_h = biological target: T26, Ret_V804L_h (Homo sapiens, UniProt P07949, V804L); assay: SelectScreen kinase assay; format: biochemical; conditions: KM ATP, read-out: % control
T26 construct: purchased Life Technologies (Invitrogen) SelectScreen, Z'-LYTE / Adapta

[3] = 3 µM, KM ATP, read-out: % control
[4] = 10-point dose-response, commercial vendor

Sequence of Flt3_h (P36888 27-993): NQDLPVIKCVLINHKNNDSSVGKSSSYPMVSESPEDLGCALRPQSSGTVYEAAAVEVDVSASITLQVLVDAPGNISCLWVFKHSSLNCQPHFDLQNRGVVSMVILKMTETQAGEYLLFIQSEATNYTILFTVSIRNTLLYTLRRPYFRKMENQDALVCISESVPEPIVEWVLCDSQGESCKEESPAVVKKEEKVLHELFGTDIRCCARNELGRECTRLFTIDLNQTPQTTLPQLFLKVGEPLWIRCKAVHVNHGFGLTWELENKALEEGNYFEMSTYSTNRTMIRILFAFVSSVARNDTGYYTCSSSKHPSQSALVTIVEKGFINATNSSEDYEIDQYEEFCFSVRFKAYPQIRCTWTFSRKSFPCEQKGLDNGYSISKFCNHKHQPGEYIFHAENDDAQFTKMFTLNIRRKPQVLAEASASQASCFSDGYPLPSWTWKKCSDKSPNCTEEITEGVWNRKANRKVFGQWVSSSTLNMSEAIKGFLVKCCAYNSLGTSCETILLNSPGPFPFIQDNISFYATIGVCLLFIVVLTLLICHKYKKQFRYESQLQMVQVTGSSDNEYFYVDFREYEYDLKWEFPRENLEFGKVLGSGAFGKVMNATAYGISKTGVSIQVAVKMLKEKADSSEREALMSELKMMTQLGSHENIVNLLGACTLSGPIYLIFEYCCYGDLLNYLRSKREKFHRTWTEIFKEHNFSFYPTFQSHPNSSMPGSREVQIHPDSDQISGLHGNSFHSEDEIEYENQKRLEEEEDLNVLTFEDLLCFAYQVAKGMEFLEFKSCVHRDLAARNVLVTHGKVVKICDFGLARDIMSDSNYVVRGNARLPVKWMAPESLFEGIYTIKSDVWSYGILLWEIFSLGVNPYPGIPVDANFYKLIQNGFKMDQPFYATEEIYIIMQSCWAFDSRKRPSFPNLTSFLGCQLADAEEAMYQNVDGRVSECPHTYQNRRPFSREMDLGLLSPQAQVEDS
Sequence of KDR_h (P35968 20-1356): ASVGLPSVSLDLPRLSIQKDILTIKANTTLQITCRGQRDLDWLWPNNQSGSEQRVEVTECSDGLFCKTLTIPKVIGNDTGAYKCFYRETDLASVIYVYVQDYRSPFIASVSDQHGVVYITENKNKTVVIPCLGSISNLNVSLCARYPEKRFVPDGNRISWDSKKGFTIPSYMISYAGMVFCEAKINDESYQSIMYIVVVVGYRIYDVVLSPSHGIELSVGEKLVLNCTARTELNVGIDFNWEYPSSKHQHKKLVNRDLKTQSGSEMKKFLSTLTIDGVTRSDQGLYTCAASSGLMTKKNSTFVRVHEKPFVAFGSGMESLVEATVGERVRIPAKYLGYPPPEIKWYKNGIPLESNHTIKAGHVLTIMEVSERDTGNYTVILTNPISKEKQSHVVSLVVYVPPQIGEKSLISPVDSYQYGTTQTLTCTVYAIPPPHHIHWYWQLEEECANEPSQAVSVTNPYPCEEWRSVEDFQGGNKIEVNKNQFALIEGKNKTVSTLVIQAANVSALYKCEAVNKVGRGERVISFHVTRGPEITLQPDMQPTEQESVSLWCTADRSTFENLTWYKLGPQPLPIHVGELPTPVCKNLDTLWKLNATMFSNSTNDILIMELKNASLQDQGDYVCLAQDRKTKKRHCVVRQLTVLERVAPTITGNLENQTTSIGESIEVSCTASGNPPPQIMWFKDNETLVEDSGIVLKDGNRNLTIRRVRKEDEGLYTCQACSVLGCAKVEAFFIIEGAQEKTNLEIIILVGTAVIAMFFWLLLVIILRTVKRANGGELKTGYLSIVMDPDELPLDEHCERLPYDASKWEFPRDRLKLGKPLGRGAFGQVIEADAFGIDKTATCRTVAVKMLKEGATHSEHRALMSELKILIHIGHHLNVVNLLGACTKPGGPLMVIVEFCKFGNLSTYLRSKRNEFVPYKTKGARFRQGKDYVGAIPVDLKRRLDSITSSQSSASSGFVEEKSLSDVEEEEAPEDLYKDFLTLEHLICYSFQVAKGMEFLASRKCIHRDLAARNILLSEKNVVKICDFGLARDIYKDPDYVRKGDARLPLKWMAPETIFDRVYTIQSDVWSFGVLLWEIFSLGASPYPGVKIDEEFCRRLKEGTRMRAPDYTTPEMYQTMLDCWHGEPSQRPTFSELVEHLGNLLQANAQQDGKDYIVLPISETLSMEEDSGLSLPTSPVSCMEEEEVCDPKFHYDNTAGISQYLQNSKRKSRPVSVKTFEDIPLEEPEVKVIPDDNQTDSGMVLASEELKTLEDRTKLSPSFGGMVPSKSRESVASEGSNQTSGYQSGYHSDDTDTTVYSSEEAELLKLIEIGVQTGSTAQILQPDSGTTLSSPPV
Sequence of ZAP-70_h (P43403 whole entry): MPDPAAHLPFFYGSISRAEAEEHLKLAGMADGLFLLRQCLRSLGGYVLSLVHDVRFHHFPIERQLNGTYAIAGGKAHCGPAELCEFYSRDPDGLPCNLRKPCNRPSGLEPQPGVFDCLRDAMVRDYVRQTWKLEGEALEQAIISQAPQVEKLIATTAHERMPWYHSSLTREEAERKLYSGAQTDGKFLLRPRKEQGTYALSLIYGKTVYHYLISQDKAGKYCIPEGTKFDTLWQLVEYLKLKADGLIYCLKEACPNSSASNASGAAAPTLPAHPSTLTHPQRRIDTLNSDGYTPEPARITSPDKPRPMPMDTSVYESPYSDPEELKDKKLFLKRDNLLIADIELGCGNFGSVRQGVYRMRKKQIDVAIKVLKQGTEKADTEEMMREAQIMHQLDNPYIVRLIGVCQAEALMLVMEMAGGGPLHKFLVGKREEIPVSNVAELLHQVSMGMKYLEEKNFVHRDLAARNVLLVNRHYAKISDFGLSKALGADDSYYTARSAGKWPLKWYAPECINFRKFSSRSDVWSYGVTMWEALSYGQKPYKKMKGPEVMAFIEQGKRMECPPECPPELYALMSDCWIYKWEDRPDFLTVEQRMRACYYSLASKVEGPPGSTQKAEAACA
T9 sequence (P07332 whole entry): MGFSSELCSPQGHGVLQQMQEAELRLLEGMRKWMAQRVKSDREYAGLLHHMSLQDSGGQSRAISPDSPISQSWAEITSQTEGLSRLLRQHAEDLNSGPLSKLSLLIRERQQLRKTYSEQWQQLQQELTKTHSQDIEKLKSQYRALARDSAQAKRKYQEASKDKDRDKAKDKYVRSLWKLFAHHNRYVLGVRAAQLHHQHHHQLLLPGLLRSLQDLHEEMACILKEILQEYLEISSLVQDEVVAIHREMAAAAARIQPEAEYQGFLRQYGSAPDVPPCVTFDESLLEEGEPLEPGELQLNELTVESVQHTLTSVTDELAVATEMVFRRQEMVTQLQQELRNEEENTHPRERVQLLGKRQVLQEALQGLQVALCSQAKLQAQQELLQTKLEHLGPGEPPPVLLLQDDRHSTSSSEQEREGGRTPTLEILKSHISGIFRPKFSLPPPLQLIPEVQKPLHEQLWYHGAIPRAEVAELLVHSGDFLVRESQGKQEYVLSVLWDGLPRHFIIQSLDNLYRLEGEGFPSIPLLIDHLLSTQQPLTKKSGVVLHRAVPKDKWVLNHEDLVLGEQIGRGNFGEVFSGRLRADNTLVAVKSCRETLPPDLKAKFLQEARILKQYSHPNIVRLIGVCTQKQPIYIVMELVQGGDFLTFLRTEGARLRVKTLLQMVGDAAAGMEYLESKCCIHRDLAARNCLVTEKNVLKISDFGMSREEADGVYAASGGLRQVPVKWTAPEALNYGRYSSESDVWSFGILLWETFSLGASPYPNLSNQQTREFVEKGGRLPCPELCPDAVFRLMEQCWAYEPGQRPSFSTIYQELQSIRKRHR
T8 sequence (P54760 16-987): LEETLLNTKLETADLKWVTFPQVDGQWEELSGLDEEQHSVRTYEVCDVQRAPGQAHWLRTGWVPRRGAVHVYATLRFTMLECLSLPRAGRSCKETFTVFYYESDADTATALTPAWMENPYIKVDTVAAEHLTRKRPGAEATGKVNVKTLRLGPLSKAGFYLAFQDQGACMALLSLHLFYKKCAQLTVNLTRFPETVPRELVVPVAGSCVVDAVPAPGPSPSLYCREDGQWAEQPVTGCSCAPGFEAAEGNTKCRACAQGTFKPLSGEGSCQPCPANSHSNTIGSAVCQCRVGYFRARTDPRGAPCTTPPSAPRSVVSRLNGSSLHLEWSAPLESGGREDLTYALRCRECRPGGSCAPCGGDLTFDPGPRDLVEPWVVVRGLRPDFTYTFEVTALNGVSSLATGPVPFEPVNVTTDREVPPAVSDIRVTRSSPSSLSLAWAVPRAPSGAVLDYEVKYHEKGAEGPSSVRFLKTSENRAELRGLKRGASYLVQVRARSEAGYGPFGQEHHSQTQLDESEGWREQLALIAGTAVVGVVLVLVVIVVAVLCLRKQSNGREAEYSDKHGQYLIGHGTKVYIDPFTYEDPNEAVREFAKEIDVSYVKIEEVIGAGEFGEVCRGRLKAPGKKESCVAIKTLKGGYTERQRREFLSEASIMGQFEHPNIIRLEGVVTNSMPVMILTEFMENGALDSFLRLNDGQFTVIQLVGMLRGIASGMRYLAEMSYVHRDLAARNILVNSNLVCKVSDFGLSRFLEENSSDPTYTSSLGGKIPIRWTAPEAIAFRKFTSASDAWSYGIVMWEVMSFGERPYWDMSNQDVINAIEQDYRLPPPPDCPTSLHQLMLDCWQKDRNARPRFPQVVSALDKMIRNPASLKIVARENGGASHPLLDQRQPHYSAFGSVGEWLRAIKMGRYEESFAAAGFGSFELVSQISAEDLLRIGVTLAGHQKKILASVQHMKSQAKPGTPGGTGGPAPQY
T23 sequence (Q16539 whole entry): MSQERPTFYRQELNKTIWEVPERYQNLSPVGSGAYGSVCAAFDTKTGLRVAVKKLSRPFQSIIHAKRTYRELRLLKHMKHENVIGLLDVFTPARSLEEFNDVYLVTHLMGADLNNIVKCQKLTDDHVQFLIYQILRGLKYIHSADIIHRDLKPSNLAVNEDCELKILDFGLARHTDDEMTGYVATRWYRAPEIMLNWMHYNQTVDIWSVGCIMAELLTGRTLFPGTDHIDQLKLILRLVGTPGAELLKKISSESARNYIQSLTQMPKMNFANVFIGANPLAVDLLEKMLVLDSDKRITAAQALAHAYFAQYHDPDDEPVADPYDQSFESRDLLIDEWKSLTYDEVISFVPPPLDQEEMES

COc1cc(Nc2ncc(F)c(Nc3ccc4c(n3)NC(=O)C(C)(C)O4)n2)cc(OC)c1OC [R406, reference compound]
% control (DNAPK_h): 87%
effect in the PCA model [1]: statistically significant effect
exposure following a single dose ([2]; 10 mg/kg b.i.d.): 15 µM·h
exposure following a single dose ([2]; 30 mg/kg b.i.d.): 38 µM·h

c1cc(CC2CCOCC2)n2nc(Nc3ccc4c(NC5CCOCC5)n[nH]c4c3)nc2c1 [CC-509, [3-(2H-3,4,5,6-tetrahydropyran-4-ylamino)(1H-indazol-6-yl)][5-(2H-3,4,5,6-tetrahydropyran-4-ylmethyl)(2H-1,2,4-triazolo[1,5-a]pyridin-2-yl)]amine]
remaining activity at 3 µM (ALK4_h): 107%
remaining activity at 3 µM (Abl_Y253F_h): 22%
remaining activity at 3 µM (BrSK1_h): 65%
remaining activity at 3 µM (CDK5_p25_h): 82%
remaining activity at 3 µM (CK1-gamma1_h): 54%
remaining activity at 3 µM (CK1-gamma2_h): 68%
remaining activity at 3 µM (EphB4_h): 87%
remaining activity at 3 µM (Fes_h): 53%
remaining activity at 3 µM (Fgr_h): 21%
remaining activity at 3 µM (Flt3_h; [3]): 6%
pIC50 (Flt3_h; [4]): 6.85 and 6.84
remaining activity at 3 µM (Gck_h): 57%
remaining activity at 3 µM (JNK3_h): 94%
remaining activity at 3 µM (KDR_h; [3]): 3%
pIC50 (KDR_h; [4]): 6.73
remaining activity at 3 µM (MATK_h): 102%
remaining activity at 3 µM (MLK1_h): 2%
remaining activity at 3 µM (MRCK-beta_h): 94%
remaining activity at 3 µM (Met_M1250T_h): 74%
remaining activity at 3 µM (MuSK_h): 41%
remaining activity at 3 µM (PAK3_h): 97%
remaining activity at 3 µM (PDGFR-beta_h): 43%
remaining activity at 3 µM (PKC-delta_h): 91%
remaining activity at 3 µM (PKC-theta_h): 78%
remaining activity at 3 µM (SRMS_h): 90%
remaining activity at 3 µM (ZAP-70_h; [3]): 70%
pIC50 (ZAP-70_h; [4]): < 5.52
remaining activity at 3 µM (p38-alpha_h): 89%
remaining activity at 3 µM (CK1-gamma3_h): 50%
remaining activity at 3 µM (MEK2_h): 73%
remaining activity at 3 µM (Ret_V804L_h): 22%
